Results published in patent US8778871B2 (Takeda Pharmaceutical Company Limited, priority 2004, dated 2014).
Starred links: 1 amine or outer side, 2 acyl side, 3 side chain; linkers in the order of their positions; H or OH if unused. Non-standard residues stand in square brackets, D forms with d. Residues, ends and D or L forms follow the SMILES beside them. No end group written: not given here. *: point of attachment. Propanoyl(3-indol-3-yl) = O=C(CCc1c[nH]c2ccccc12)*; X3 = O=C(CNC(=S)[C@H](Cc1ccccc1)N[*:1])[*:2]; Arg(Me) = CNC(=N)NCCC[C@H](N)C(=O)O; X2 = O=C(Cc1c[nH]c2ccccc12)*; X7 = O=C(c1c[nH]c2ccccc12)*; Orn = NCCC[C@H](N)C(=O)O; Abu = CC[C@H](N)C(=O)O; azaGly = NNC(=O)O

Columns and labels:
Format in all cases: cell-based
[1] = biological target: T1, hOT7T175 (Homo sapiens, UniProt Q969F8, L364H); test: Intracellular Ca ion level-increasing activity using FLIPR (180 seconds; specific activity to Metastin (1-54)); settings: hOT7T175/CHO, relative to Metastin (1-54) = 1
T1 construct: expressed in transfected cells
T1 sequence (Q969F8 whole entry L364H): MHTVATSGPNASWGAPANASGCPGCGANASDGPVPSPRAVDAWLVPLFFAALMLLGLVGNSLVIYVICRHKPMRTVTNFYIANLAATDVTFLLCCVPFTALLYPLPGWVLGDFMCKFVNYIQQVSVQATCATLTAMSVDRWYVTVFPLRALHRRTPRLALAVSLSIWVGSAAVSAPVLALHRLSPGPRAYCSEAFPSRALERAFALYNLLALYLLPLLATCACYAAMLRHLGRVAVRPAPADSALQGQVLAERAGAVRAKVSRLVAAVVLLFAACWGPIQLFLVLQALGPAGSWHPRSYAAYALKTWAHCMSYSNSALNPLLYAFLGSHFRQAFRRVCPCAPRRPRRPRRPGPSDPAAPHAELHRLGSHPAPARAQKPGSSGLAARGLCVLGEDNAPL

[2] = biological target: T2, hOT7T175 (Homo sapiens, UniProt Q969F8); test: as above; settings: hOT7T175/CHO, change in intracellular calcium ion level for 180 seconds, Tables 21-23
T2 construct: expressed in transfected cells
T2 sequence (Q969F8 whole entry L364H): as above

[3] = biological target: T1, hOT7T175; settings: hOT7T175/CHO, FLIPR, evaluation for 40 seconds after initiation of the reaction
Procedure: The intracellular Ca ion level-increasing activity was measured using FLIPR as in TEST EXAMPLE 2.

Row | Molecule | Specific Act. (intracellular Ca ion level-increasing activity, specific activity to Metastin (1-54)) [1] | intracellular Ca ion level-increasing activity [specific activity to Metastin (1-54)] [2] | Specific Act. (EC50/MS10 EC50) [3]
1 | CC(C)C[C@H](NC(=O)CNC(=O)[C@H](Cc1ccccc1)NC(=O)[C@H](CO)NC(=O)[C@H](CC(N)=O)NC(=O)[C@H](Cc1c[nH]c2ccccc12)NC(=O)[C@H](CC(N)=O)NC(=O)[C@H](Cc1ccc(O)cc1)NC(=O)OCC1c2ccccc2-c2ccccc21)C(=O)N[C@@H](CCCNC(=N)N)C(=O)N[C@@H](Cc1ccccc1)C(N)=O [Compound No. 31] | 2 | – | –
2 | CNC(=N)NCCC[C@H](NC(=O)[C@H](CC(C)C)NC(=O)NNC(=O)[C@H](Cc1ccccc1)NC(=O)[C@H](CO)NC(=O)[C@H](CC(N)=O)NC(=O)[C@@H](Cc1c[nH]c2ccccc12)NC(=O)[C@@H](CC(N)=O)NC(=O)[C@H](N)Cc1ccc(O)cc1)C(=O)N[C@@H](Cc1ccccc1)C(N)=O [Compound No. 238, D-Tyr-D-Asn-D-Trp-Asn-Ser-Phe-AzaGly-Leu-Arg(Me)-Phe-NH2] | 1 | – | –
3 | CNC(=N)NCCC[C@H](NC(=O)[C@H](CC(C)C)NC(=O)NNC(=O)[C@H](Cc1ccccc1)NC(=O)[C@H](CO)NC(=O)[C@H](CC(N)=O)NC(=O)CCc1c[nH]c2ccccc12)C(=O)N[C@@H](Cc1ccccc1)C(N)=O [Compound No. 260, 3-(3-Indolyl)propionyl-Asn-Ser-Phe-AzaGly-Leu-Arg(Me)-Phe-NH2] ({Propanoyl(3-indol-3-yl)}-NSF[azaGly]L[Arg(Me)]F-NH2) | – | 5 | 4.3
4 | Acp-D-Tyr-D-Pya(4)-Asn-Ser-Phe-AzaGly-Leu-Arg(Me)-Phe-NH2 [Compound No. 504] | – | 2 | 6.9
5 | Diphenylacetyl-AzaGly-Leu-Arg(Me)-Trp-NH2 [Compound No. 378] | – | ½ | 10.4
6 | CNC(=N)NCCC[C@H](NC(=O)[C@H](CC(C)C)NC(=O)NNC(=O)[C@H](Cc1ccccc1)NC(=O)[C@H](CO)NC(=O)[C@H](CC(N)=O)NC(=O)Cc1c[nH]c2ccccc12)C(=O)N[C@@H](Cc1ccccc1)C(N)=O [Compound No. 266, Indol-3-acetyl-Asn-Ser-Phe-AzaGly-Leu-Arg(Me)-Phe-NH2] (X2-NSF[azaGly]L[Arg(Me)]F-NH2) | – | 2 | 5.4
7 | 6-Chloronicotinoyl-Phe-AzaGly-Leu-Arg(Me)-Trp-NH2 [Compound No. 463] | – | 2 | 4.6
8 | CNC(=N)NCCC[C@H](NC(=O)[C@H](CC(C)C)NC(=O)NNC(=O)[C@H](Cc1ccccc1)NC(=O)[C@H](CO)NC(=O)[C@H](CC(N)=O)NC(=O)c1c[nH]c2ccccc12)C(=O)N[C@@H](Cc1ccccc1)C(N)=O [Compound No. 265, Indole-3-carbonyl-Asn-Ser-Phe-AzaGly-Leu-Arg(Me)-Phe-NH2] (X7-NSF[azaGly]L[Arg(Me)]F-NH2) | – | 3 | 4.4
9 | Isobutyryl-Phe-AzaGly-Leu-Arg(Me)-Trp-NH2 [Compound No. 438] | – | 3 | 3.0
10 | (2S)-2-(3-Indolylprpionyloxy)-3-phenylpropionyl-AzaGly-Leu-Arg(Me)-Trp-NH2 [Compound No. 379] | – | 2 | 3.0
11 | CC(C)C[C@H](NC(=O)CNC(=O)[C@H](Cc1ccccc1)NC(=O)[C@H](CO)NC(=O)[C@H](CC(N)=O)NC(=O)[C@H](Cc1c[nH]c2ccccc12)NC(=O)[C@H](CC(N)=O)NC(=O)[C@@H](N)Cc1ccc(O)cc1)C(=O)N[C@@H](CCCN)C(=O)N[C@@H](Cc1ccccc1)C(N)=O [Compound No. 314] (H-YNWNSFGL[Orn]F-NH2) | – | 1 | 4.4
12 | D-Tyr-D-Pya(4)-Asn-Ile-Phe-AzaGly-Leu-Arg(Me)-Trp-NH2 [Compound No. 498] | – | 7 | 1.5
13 | D-Tyr-D-Pya(4)-Asn-Ser-Phe-AzaGly-Leu-Har-Trp-NH2 [Compound No. 481] | – | 5 | 2.4
14 | CNC(=N)NCCC[C@H](NC(=O)[C@H](CC(C)C)NC(=O)CNC(=S)[C@H](Cc1ccccc1)NC(=O)[C@H](CO)NC(=O)[C@H](CC(N)=O)NC(=O)[C@H](Cc1c[nH]c2ccccc12)NC(=O)[C@H](CC(N)=O)NC(=O)[C@H](N)Cc1ccc(O)cc1)C(=O)N[C@@H](Cc1ccccc1)C(N)=O [Compound No. 296, D-Tyr-Asn-Trp-Asn-Ser-PheΨ(CSNH)Gly-Leu-Arg(Me)-Phe-NH2] (H-[dY]NWNS[X3]L[Arg(Me)]F-NH2) | – | 3 | 5.2
15 | CNC(=N)NCCC[C@H](NC(=O)[C@H](CC(C)C)NC(=O)NNC(=O)[C@H](Cc1ccccc1)NC(=O)[C@H](CO)NC(=O)[C@H](CC(N)=O)NC(=O)[C@H](Cc1c[nH]c2ccccc12)NC(=O)[C@H](CC(N)=O)NC(=O)[C@H](N)Cc1ccc(O)cc1)C(=O)N[C@@H](Cc1ccc(F)cc1)C(N)=O [Compound No. 318, D-Tyr-Asn-Trp-Asn-Ser-Phe-AzaGly-Leu-Arg(Me)-Phe(4F)-NH2] | – | 5 | 2.9
16 | Dibenzylcarbamoyl-AzaGly-Leu-Arg(Me)-Trp-NH2 [Compound No. 393] | – | 1 | 5.9
17 | Dap-D-Tyr-Asn-Trp-Asn-Ser-Phe-Gly-Leu-Arg(Me)-Phe-NH2 [Compound No. 387] | – | 1 | 5.0
18 | [dY][dW][Abu]SF[azaGly]L[Arg(Me)]W-NH2 [Compound No. 513] | – | 20 | 0.4

Row | Molecule | Specific Act. (intracellular Ca ion level-increasing activity, specific activity to Metastin (1-54)) [1] | intracellular Ca ion level-increasing activity [specific activity to Metastin (1-54)] [2] | Specific Act. (EC50/MS10 EC50) [3]
19 | 4-Aminobenzoyl-Phe-AzaGly-Leu-Arg(Me)-Trp-NH2 [Compound No. 472] | – | 3 | 3.4
20 | D-Tyr-Pya(4)-Ala-Ser-Phe-AzaGly-Leu-Arg(Me)-Trp-NH2 [Compound No. 502] | – | 10 | 1.4
21 | Dimethylcarbamoyl-Phe-AzaGly-Leu-Arg(Me)-Trp-NH2 [Compound No. 467] | – | 1 | 4.0
22 | 4-Aminomethylbenzoyl-Phe-AzaGly-Leu-Arg(Me)-Trp-NH2 [Compound No. 473] | – | 3 | 4.2
23 | 4-Imidazolecarbonyl-Phe-AzaGly-Leu-Arg(Me)-Trp-NH2 [Compound No. 459] | – | 2 | 7.3
24 | 1-Azetidinecarbonyl-Phe-AzaGly-Leu-Arg(Me)-Trp-NH2 [Compound No. 468] | – | 1 | 5.2
25 | Cyclopropanecarbonyl-Phe-AzaGly-Leu-Arg(Me)-Trp-NH2 [Compound No. 447] | – | 5 | 1.4
26 | [dY][dF]ASF[azaGly]L[Arg(Me)]W-NH2 [Compound No. 514] | – | 10 | 0.7
27 | Ac-Phe-AzaGly-Leu-Arg(Me)-Trp-NH2 [Compound No. 358] | – | 2 | 5.6
28 | Ac-NSF[azaGly]L[Arg(Me)]W-NH2 [Compound No. 510] | – | 3 | 3.5
29 | 3-Phenylpropionyl-Asn-Ile-Phe-AzaGly-Leu-Arg(Me)-Trp-NH2 [Compound No. 506] | – | 1 | 1.3
30 | Pyrrole-2-carbonyl-Phe-AzaGly-Leu-Arg(Me)-Trp-NH2 [Compound No. 455] | – | 5 | 4.1
31 | CNC(=N)NCCC[C@H](NC(=O)[C@H](CC(C)C)NC(=O)NNC(=O)[C@H](Cc1ccccc1)NC(=O)[C@@H](NC(=O)[C@H](CC(N)=O)NC(=O)[C@H](Cc1c[nH]c2ccccc12)NC(=O)[C@@H](CC(N)=O)NC(=O)[C@H](N)Cc1ccc(O)cc1)[C@@H](C)O)C(=O)N[C@@H](Cc1ccccc1)C(N)=O [Compound No. 298, D-Tyr-D-Asn-Trp-Asn-Thr-Phe-AzaGly-Leu-Arg(Me)-Phe-NH2] (H-[dY][dN]WNTF[azaGly]L[Arg(Me)]F-NH2) | – | 5 | 1.8
32 | 6-Methylnicotinoyl-Phe-AzaGly-Leu-Arg(Me)-Trp-NH2 [Compound No. 445] | – | 5 | 4.2
33 | D-Tyr-D-Pya(4)-Ser-Phe-AzaGly-Leu-Arg(Me)-Trp-NH2 [Compound No. 494] | – | ⅓ | 8.6
34 | Pyridazine-4-carbonyl-Phe-AzaGly-Leu-Arg(Me)-Trp-NH2 [Compound No. 480] | – | 1 | 8.3
35 | 3-Furancarbonyl-Phe-AzaGly-Leu-Arg(Me)-Trp-NH2 [Compound No. 454] | – | 6 | 2.5
